Experiments:
Bombus terrestris = test: Acute contact (topical) insecticide bioassay of bumble bees; settings: no synergist, 48 hours after application
Method: Acute contact insecticide assays were performed on female A. mellifera following standard methods OECD 2013 [30]. Bioassays of B. terrestris were based on the OECD guidelines developed for honeybees but with bees assayed in individual Nicot cages. Bees were starved of sucrose solution for up to 2 hr to encourage feeding during the experiment. […] Controls were fed a solution of sucrose containing a concentration of acetone matching that of the highest treatment concentration. After 4-6 hr the syringes were assessed to see if bees had consumed the insecticide-sucrose solution. Those that had not consumed all of the solution were excluded from the experiment. Mortality was assessed 48 hr after feeding and lethal concentrations (LC50 values) were calculated by probit analysis using Genstat version 16 (VSN International). For synergist bioassays, B. terrestris or A. mellifera workers were first treated with 20 μg of piperonyl butoxide or 1 μg of aminobenzotriazole applied to the dorsal thorax. Synergist bioassays included an additional control group treated only with the synergist. 1 hr after synergist application, bees were then treated with the appropriate insecticide dosage as above.

CYP9Q1 = CYP9Q1 (Apis mellifera, UniProt A0A7M7GTV9); test: in vitro; settings: for metabolism by the recombinant P450 (in words): hydroxylation (thiacloprid, imidacloprid) or N-desmethylation (acetamiprid)
Excerpt: (§1) All bee P450 (see Table S3 for accession numbers) and house fly NADPH-dependent cytochrome P450 reductase (CPR) (GenBank accession number Q07994) genes were obtained by gene synthesis (Geneart, CA, USA) and inserted into the pDEST8 expression vector (Invitrogen). Codon optimization of all bee genes was used to optimize expression in lepidopteran cell lines. The PFastbac1 vector with no inserted DNA was used to produce a control virus. The recombinant baculovirus DNA was constructed and transfected into Trichoplusia ni (High five cells, Thermo Fisher) using the Bac-to-Bac baculovirus expression system (Invitrogen) according to the manufacturer’s instructions. The titer of the recombinant virus was determined following protocols of the supplier. High Five cells grown to a density of 2 × 10^6 cells ml^-1 were co-infected with recombinant baculoviruses containing each bee P450 and CPR with a range of MOI (multiplicity of infection) ratios to identify the optimal conditions. Control cells were co-infected with the baculovirus containing vector with no insert (ctrl-virus) and the recombinant baculovirus expressing CPR using the same MOI ratios. Ferric citrate and δ-aminolevulinic acid hydrochloride were added to a final concentration of 0.1 mM at the time of infection and 24 h after infection to compensate the low levels of endogenous heme in the insect cells. After 48 h, cells were harvested, washed with PBS, and microsomes of the membrane fraction prepared according to standard procedures and stored at −80°C [31]. Briefly, pellets were homogenized for 30 s in 0.1M Na/K-phosphate buffer, pH 7.4 containing 1mM EDTA and DTT and 200mM sucrose using a Fastprep (MP Biomedicals), filtered through miracloth and centrifuging for 10 min at 680 g at 4°C. The supernatant was then centrifuged for 1 h at 100,000 g at 4°C, with the pellet subsequently resuspended in 0.1M Na/K-phosphate buffer, pH 7.6 containing 1mM EDTA and DTT and 10% glycerol using a Dounce tissue grinder. P450 expression and functionality was estimated by measuring CO-difference spectra in reduced samples using a Specord 200 Plus Spectrophotometer (Analytik Jena) and scanning from 500 nm to 400 nm. The protein content of samples was determined using Bradford reagent (Sigma) and bovine serum albumin (BSA) as a reference.
(§2) The total assay volume was 200 μL using three replicates for each data point. Microsomes incubated without NADPH served as a control. The assay was stopped by the addition of ice-cold acetonitrile (to 80% final concentration), centrifuged for 10 min at 3000 g and the supernatant subsequently analyzed by tandem mass spectrometry as described previously. For the chromatography on a Waters Acquity HSS T3 column (2.1x50mm, 1.8μm), acetonitrile/water/0.1% formic acid was used as the eluent in gradient mode. […] The peak integrals were calibrated externally against a standard calibration curve. […] Substrate turnover from two independent reactions were plotted versus controls and Michaelis-Menten kinetics determined using GraphPad Prism version 7 (GraphPad Software, CA, USA).

CYP9Q2 = target: T1, CYP9Q2 (Apis mellifera, UniProt A0A7M7R6F2); test: in vitro; settings: for metabolism by the recombinant P450 (in words): hydroxylation (thiacloprid, imidacloprid) or N-desmethylation (acetamiprid)
T1 sequence (A0A7M7R6F2 1-532): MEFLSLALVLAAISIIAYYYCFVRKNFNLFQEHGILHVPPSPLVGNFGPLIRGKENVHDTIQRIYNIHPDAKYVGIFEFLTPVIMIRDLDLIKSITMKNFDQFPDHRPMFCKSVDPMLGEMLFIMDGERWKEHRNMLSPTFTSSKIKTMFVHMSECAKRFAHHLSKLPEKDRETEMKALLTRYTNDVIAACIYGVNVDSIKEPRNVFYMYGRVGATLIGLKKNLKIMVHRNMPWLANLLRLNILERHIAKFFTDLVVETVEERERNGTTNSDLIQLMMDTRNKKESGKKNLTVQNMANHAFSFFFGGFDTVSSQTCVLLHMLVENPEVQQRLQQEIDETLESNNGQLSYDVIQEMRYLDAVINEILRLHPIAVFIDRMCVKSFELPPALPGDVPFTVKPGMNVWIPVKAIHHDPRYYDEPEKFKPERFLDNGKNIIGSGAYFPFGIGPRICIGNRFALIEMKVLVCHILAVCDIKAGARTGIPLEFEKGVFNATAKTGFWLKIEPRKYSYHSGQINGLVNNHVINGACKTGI
T1 sequence (Q07994 1-671 partner): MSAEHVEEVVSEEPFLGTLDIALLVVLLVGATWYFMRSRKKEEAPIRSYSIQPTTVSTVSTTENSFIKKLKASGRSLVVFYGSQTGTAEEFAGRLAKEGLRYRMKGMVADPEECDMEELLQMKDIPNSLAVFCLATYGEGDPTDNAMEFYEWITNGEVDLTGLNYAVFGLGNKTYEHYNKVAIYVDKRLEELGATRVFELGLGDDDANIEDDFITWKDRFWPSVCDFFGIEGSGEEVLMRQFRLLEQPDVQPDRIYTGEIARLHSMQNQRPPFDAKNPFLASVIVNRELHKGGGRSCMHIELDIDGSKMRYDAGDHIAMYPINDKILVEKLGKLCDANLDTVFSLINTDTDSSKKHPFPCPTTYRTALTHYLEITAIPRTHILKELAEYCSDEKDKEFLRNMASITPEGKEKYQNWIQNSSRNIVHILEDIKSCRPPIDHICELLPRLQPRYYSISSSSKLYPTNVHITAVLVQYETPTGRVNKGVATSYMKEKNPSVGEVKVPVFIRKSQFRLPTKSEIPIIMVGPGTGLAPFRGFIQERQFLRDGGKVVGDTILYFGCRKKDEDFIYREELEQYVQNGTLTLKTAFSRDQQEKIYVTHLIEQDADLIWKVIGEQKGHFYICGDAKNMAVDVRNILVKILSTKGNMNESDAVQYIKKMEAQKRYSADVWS
Excerpt: as §1, §2

CYP9Q3 = CYP9Q3 (Apis mellifera, UniProt A0A7M7LMV1); test: in vitro; settings: for metabolism by the recombinant P450 (in words): hydroxylation (thiacloprid, imidacloprid) or N-desmethylation (acetamiprid)
Excerpt: as §1, §2

[1] = apparent value, mean ± SD (n=3), decimal commas

CYP9Q3, sequence (A0A7M7LMV1 entry or part of it, one chain of several): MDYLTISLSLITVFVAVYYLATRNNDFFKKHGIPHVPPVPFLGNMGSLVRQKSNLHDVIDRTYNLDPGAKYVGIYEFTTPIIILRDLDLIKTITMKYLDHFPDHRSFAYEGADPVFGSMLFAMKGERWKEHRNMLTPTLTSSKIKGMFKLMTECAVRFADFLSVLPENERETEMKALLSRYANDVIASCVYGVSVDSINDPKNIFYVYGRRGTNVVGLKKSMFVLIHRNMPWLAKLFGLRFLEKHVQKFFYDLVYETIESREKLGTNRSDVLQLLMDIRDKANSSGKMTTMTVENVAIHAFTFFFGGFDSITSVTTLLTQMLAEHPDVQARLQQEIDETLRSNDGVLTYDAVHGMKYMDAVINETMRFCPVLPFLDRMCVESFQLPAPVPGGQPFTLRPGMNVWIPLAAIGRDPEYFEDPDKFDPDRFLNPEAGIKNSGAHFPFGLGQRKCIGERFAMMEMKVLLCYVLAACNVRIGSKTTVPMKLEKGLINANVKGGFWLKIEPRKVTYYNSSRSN
CYP9Q1, sequence (A0A7M7GTV9 entry or part of it, one chain of several): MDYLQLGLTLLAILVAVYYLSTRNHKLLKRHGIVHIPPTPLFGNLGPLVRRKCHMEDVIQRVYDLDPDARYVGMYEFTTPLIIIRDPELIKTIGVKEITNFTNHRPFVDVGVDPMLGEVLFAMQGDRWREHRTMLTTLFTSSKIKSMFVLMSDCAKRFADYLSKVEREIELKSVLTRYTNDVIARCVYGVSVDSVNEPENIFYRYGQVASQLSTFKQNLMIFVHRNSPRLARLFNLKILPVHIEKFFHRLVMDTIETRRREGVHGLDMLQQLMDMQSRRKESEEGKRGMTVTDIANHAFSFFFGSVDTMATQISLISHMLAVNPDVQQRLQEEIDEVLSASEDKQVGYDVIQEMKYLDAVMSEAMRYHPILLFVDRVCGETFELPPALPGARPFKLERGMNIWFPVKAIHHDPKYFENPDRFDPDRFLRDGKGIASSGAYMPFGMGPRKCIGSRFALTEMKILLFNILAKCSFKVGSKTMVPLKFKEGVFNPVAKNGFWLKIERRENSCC

Row | Structure (SMILES) | LD50 (Bombus terrestris) | Km at 2 h (CYP9Q1; Apis mellifera) | Vmax, thiacloprid hydroxylation (CYP9Q1; [1]) | metabolism by the recombinant P450 (in words) (CYP9Q1) | Km at 2 h (CYP9Q2; Apis mellifera) | Vmax, thiacloprid hydroxylation (CYP9Q2; [1]) | metabolism by the recombinant P450 (in words) (CYP9Q2) | Km at 2 h (CYP9Q3; Apis mellifera) | Vmax, thiacloprid hydroxylation (CYP9Q3; [1]) | metabolism by the recombinant P450 (in words) (CYP9Q3)
1 | N#C/N=C1\SCCN1Cc1ccc(Cl)nc1 [thiacloprid] | > 100 μg/bee | 17.8 µM | 3,92 ±0,08 pmol min-1 mg-1 | weak activity | 5.65 µM | 44,31±1,01 pmol min-1 mg-1 | weak activity | 3.92 µM | 607,8±5,48 pmol min-1 mg-1 | highly efficient metabolizer
2 | O=[N+]([O-])NC1=NCCN1Cc1ccc(Cl)nc1 [imidacloprid] | 0.38 μg/bee | – | – | much lower efficiency than exhibited for thiacloprid | – | – | much lower efficiency than exhibited for thiacloprid | – | – | much lower efficiency than exhibited for thiacloprid
